Legend:
(His)6-hERRγ LBD = biological target: T1, (His)6-hERRγ LBD (Homo sapiens, UniProt P62508); assay: FRET assay of agonist-induced activation of ERRγ with coactivator peptide PGC-1α; assay type: biochemical; details: for maximal increase in FRET signal: highest concentration tested / saturating concentrations
T1 sequence (P62508 233-457 limits assumed): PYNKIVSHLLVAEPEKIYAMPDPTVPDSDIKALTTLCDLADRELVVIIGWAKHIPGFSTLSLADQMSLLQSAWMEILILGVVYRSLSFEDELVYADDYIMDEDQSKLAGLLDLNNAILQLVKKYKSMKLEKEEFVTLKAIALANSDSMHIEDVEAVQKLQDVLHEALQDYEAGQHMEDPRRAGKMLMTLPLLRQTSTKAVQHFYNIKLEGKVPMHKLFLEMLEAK
Protocol: The FRET assay is designed to detect agonist-induced activation of ERRγ in the presence of the coactivator peptide PGC-1α. […] Mix 1 contained antibody, hERRγ LBD in buffer in a volume of 19 μL and was added to 30 μL of Mix 2 which contained Cy5-peptide in buffer (1. 6xHis-ERRγ-LBD, 3.6 mg/ml, MW 27 KDa; 2. Cy5-PGC-1 peptide from AnaSpec; 3. Other buffer components from Sigma; 4. EU-antiHis6-Ab from Perkin Elmer; and 5. Test compounds.). The assays were carried out in black 384-well plates and incubated at room temperature for 3 hrs before FRET signals were measured using a Wallac Victor 2 (Perkin Elmer) plate reader. The ratio of emission signals (665 nm/615 nm) was used to determine the FRET assay response. In some cases, the FRET signal to background ratio was used and this is simply defined as the FRET ratio in the presence of protein […] FRET ratio in the absence of protein. The test compounds were dissolved in DMSO at 10 mM and used as indicated.
The ability of agonist compounds to induce an increased FRET response between the Europium-labeled anti-(His)6 antibody/(His)6-hERRγ LBD complex and Cy5-[…] […] The compounds were solubilized in 10 mM DMSO and the concentration range of the titration was from 100 μM down to 2 nM. The final DMSO concentration was 2%. A DMSO control (no compound) at 2% was also prepared. All samples were made in duplicate.

ERs = details: Zuercher et al. 2005; cited from earlier work
ERRγ = biological target: T2, ERRγ (Homo sapiens, UniProt P62508); details: purportedly, Zuercher et al. 2005; cited from earlier work
T2 sequence (P62508 1-458): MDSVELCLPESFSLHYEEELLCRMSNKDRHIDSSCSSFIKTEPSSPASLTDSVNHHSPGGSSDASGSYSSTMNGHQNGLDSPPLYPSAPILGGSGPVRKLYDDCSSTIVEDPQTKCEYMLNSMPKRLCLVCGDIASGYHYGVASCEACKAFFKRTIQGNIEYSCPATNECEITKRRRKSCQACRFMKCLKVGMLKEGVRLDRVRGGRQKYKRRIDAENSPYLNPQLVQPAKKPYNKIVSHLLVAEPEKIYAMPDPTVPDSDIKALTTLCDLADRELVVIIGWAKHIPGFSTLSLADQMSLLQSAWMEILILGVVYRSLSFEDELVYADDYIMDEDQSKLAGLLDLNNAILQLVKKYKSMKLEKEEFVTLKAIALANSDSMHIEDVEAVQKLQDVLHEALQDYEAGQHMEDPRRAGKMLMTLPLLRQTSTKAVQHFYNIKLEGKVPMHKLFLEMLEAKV

primary mouse myotubes [1] = assay: Gene expression by real time quantitative PCR in primary mouse myotubes; assay type: cell-based; details: 24 h
Protocol: (§1) Primary mouse myoblasts from FVB mice were isolated and maintained as described in Bare et al. For experimentation, mouse myoblasts were grown to 80% confluence in F-10/Ham's media containing 20% fetal bovine serum, 1% Penicillin/Streptomycin and 2.5 ng/mL bFGF (human recombinant). The cells were then plated to 700,000 cells per well in 6-well plates, and allowed to differentiate into myotubes for 36 to 48 hours in DMEM containing 5% equine serum and Penicillin/Streptomycin. […] Assays performed included analysis of gene expression by real time quantitative PCR (RT-PCR), cytochrome c ELISA, citrate synthase assay, fatty acid oxidation assay, and a respiration assay. […] Each dose was tested in trplicate, and a set of wells treated with an equivalent volume of DMSO used was included in every experimental readout for control purposes.
For the purpose of assessing gene expression by RT-PCR, RNA was isolated from cell lysates, and cDNA was subsequently synthesized from this RNA. For RNA isolation, cells were homogenized in TRIzol (Invitrogen, catalog number 15596-026, Carlsbad, Calif.), and total RNA was isolated following the manufacturer's instructions. RNA was quantified using the spectrophotometer.
Reverse transcription was performed using the BD Sprint™ PowerScriptT™ kit from BD Biosciences (catalog number 639562). Quantitative real time PCR for the following genes was performed using Assay-on-Demand primer probes from Applied Biosystems (See Post-text Table 8-1 for catalog numbers): B2M, ERRγ, ERRβ, ERRα, PGC-1α, PGC-1β, PPARα, PPARγ, PPARδ, COX-4, cytochrome c, UQCRB, CPT-1b, LCAD, MCAD, IDH3a, ATP-5b, UCP-2, and UCP-3.
Taqman real time quantitative PCR was performed and analyzed following the manufacturer's instructions (Applied Biosystems). Specifically, amplification was performed in triplicate, in a 10 μl reaction mixture. The reaction mixture included: 1× TaqMan® Universal PCR Master Mix (Applied Biosystems, catalog number 4304437), 1× of Assay-on-Demand primer probe, and 2 μl of cDNA sample. Gene expression was calculated by normalizing to total cDNA as measured by B2M endogenous control (Applied Biosystems, catalog number Mm00437762_m1). The samples were initially incubated for 2 min at 50° C. for optimum uracyl-N-glycosylase activity. The PCR program started with a 95° C. denaturing for 10 min, followed by 40 cycles of 95° C./15 sec and 60° C./1 min in a 384-well thermal cycler (Perkin-Elmer Applied Biosystems). Each amplification run contained “No Template” controls (buffer and primers only). Amplification data were collected by the 7700 Sequence Detector and analyzed using the Sequence Detection System software developed by Perkin-Elmer (Applied Biosystems). The fractional cycle number reflecting a positive PCR result is called the cycle threshold (Ct).
Average gene expression values were calculated for each group relative to B2M, using 2^−ΔΔCt (as described by Applied Biosystems, Foster City, Calif.) with the expression in the vehicle treated cells (0 μM) normalized to a value of 1. The data are expressed as mean±SEM (n=3 replicate wells). Statistical significance was measured using Student's t test.

primary mouse myotubes [2] = assay: Cytochrome c ELISA in primary mouse myotubes; assay type: cell-based; details: 30 μM, 24 hours, vs vehicle
Protocol: as §1
The cytochrome c enzyme-linked immunosorbent assay (ELISA) was performed using the RatMouse Cytochrome c Immunoassay kit from R&D Systems (catalog number MCTC0, R&D Systems, Minneapolis, Minn.) following the manufacturer's instructions.

primary mouse myotubes [3] = assay: Respiration assay (oxygen consumption, Clark electrode) in primary mouse myotubes; assay type: cell-based; details: 30 μM, 24 hr
Protocol: as §1
Cells were washed once with phosphate-buffered saline (PBS) and treated for 5 min at 37° C. with 2 ml of trypsin (Mediatech, catalog number 25-052-CI). Without removing trypsin, 10 ml of DMEM plus 10% FBS was added into each well. The cells were transferred to a 15 ml tube and centrifuged for 5 min at 1000 rpm. The cells were washed once with the medium and pelleted before being resuspended in the assay buffer containing 25 mM glucose (Sigma, catalog number G-5400), 1 mM pyruvate (Invitrogen, catalog number 11360-070) and 2% bovine serum albumin (BSA) (MP Biomedicals, catalog number 103703) in D-PBS (Invitrogen, catalog number 14040-133). The cell suspension was diluted to 1×10^6 cells per ml in the assay buffer and kept at 37° C. until used. Oxygen consumption was measured with a Clark electrode according to the instructions provided by Hansatech (Norfolk, UK). One half of the cell suspension was used for each measurement. […] The rate of respiration was measured by calculating the slope of the flux of oxygen consumption using the software provided by the manufacturer.

ERRα = biological target: T3, ERRα (Homo sapiens, UniProt P11474); details: Zuercher et al. 2005; cited from earlier work
T3 sequence (P11474 1-423): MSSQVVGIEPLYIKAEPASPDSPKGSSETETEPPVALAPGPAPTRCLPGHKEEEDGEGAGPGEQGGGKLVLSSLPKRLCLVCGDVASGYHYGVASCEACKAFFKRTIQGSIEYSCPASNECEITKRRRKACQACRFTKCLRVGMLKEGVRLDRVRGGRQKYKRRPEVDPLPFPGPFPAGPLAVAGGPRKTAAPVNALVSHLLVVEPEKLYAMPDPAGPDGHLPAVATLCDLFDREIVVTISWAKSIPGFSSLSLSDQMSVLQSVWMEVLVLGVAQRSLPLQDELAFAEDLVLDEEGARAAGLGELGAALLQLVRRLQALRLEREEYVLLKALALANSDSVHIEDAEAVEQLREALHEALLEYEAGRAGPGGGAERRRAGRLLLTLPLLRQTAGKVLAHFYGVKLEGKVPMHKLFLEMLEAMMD

ERRβ = biological target: T4, ERRβ (Homo sapiens, UniProt O95718); details: purportedly, Zuercher et al. 2005; cited from earlier work
T4 sequence (O95718 1-433): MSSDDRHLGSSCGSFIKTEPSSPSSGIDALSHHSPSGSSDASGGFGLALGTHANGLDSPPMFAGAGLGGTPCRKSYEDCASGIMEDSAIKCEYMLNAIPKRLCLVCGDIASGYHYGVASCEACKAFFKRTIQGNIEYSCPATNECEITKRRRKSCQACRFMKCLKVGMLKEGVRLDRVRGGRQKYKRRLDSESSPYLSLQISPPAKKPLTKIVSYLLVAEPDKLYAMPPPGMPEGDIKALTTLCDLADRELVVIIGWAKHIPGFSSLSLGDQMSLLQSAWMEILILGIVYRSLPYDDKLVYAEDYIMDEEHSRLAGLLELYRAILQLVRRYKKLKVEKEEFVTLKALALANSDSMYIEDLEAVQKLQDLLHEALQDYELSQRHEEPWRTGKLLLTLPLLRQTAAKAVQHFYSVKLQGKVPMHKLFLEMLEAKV

primary mouse myotubes [4] = assay: Citrate synthase assay in primary mouse myotubes; assay type: cell-based; details: 24 hours
Protocol: as §1
The citrate synthase assay was performed following the procedure described in above in this application.

[5] = 30 μM, relative to B2M, vehicle = 1

CCN(CC)c1ccc(/C=N/NC(=O)c2ccc(O)cc2)cc1 [LCN446, N′-(4-(diethylamino)phenylmethylidene)-4-hydroxybenzohydrazide]
maximal increase in FRET signal ((His)6-hERRγ LBD): 70% | EC50 ((His)6-hERRγ LBD; titration 100 μM down to 2 nM, 2% DMSO, duplicate, read-out: EC50 of FRET response): 540 nM

CC(C)c1ccc(/C=N/NC(=O)c2ccc(O)cc2)cc1 [AJQ710, 4-hydroxy-N′-(4-isopropylphenylmethylidene)-benzohydrazide]
activation of the ERs (ERs): does not activate | activation of ERRγ (ERRγ): activates | maximal increase in FRET signal ((His)6-hERRγ LBD): ≤ 60% | UCP-2 highest expression (primary mouse myotubes [1]; 10 μM, relative to B2M, vehicle = 1): 1.5 fold | ATP-5b expression increase (primary mouse myotubes [1]; [5]): 1.6 fold | COX-4 expression increase (primary mouse myotubes [1]; [5]): 2 fold | CPT-1b expression increase (primary mouse myotubes [1]; [5]): over 3 fold | ERRα expression increase (primary mouse myotubes [1]; [5]): 3.7 fold | ERRβ expression increase (primary mouse myotubes [1]; [5]): 1.5 fold | ERRγ expression (primary mouse myotubes [1]; [5]): 1.4 fold | IDH3α expression increase (primary mouse myotubes [1]; [5]): over 2 fold | LCAD expression increase (primary mouse myotubes [1]; [5]): 2.8 fold | MCAD expression increase (primary mouse myotubes [1]; [5]): 1.6 fold | PGC-1α expression (primary mouse myotubes [1]; [5]): 1.9 fold | PPARγ maximal expression (primary mouse myotubes [1]; [5]): 2.2 fold | UCP-3 expression increase (primary mouse myotubes [1]; [5]): over 3 fold | UQCRB expression increase (primary mouse myotubes [1]; [5]): 2 fold | cytochrome c expression increase (primary mouse myotubes [1]; [5]): 3.7 fold | PPARα expression (primary mouse myotubes [1]; 1-30 μM): no change in expression | PPARδ expression (primary mouse myotubes [1]; 1-30 μM): no change in expression | PGC-1β expression (primary mouse myotubes [1]; relative to B2M, vehicle = 1): 1.8 fold | increase of cytochrome c protein (primary mouse myotubes [2]): 88% | increase in basal respiration (primary mouse myotubes [3]; vs vehicle treated controls): 37% | increase in respiration rate in the presence of FCCP (primary mouse myotubes [3]; vs vehicle-treated control cells): 32% | increase in oligomycin-insensitive respiration (proton leak) (primary mouse myotubes [3]; not statistically significant): 36% | activation of ERRα (ERRα): does not activate | activation of ERRβ (printed ERRP) (ERRβ): activates | increase in citrate synthase activity (primary mouse myotubes [4]; 3 μM): 9% | increase in citrate synthase activity (primary mouse myotubes [4]; 10 μM): 8% | increase in citrate synthase activity (primary mouse myotubes [4]; 30 μM): 28%

— US20090281191A1, “USE OF ORGANIC COMPOUNDS” (priority 2006, published 2009)
